According to publication PMC5841289, “Natural polyphenols as sirtuin 6 modulators” (Scientific Reports, 2018):
“Also recorded” adds a separate entry of the source.

Experiments:
GST-tagged SIRT6 [1] = target: T1, GST-tagged SIRT6 (Homo sapiens, UniProt Q8N6T7); parameters: method as in PMID 26607666; details: cited from earlier work
T1 construct: made in house; host or cells: E. coli BL21(DE3)-pRARE

GST-tagged SIRT6 [2] = target: T1, GST-tagged SIRT6; assay: HPLC-based SIRT6 deacetylation assay with H3K9Ac peptide;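 as to all read-outs here: recombinant SIRT6 incubated 30 min at 37 °C with 500 µM NAD+ and H3K9Ac peptide, deacetylated H3K9 quantified by reversed-phase HPLC-MRM peak area versus DMSO control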; assay type: biochemical; details: for Activation 100 µM / inhibition at 100 µM / Inhibition % 100 µM: 100 µM compound; for Activation 100 µM: 40 µM H3K9Ac, fold per Fig. 2C legend
[3] = tested on: Twist1 protein expression in Caco-2 cells; assay: Immunoblotting of Twist1 protein expression in Caco-2 cells; assay type: cell-based, human; details: Caco-2, 24 h, 100 µM
Method: (§1) After the treatment, conditions of the cells were evaluated under a light microscope (Fig. 3A). […] Full-length blots are presented in Supplementary Fig. S4.
(§2) FoxO3α, Twist1 and GLUT1 expression were quantified and normalised with α-tubulin or H3. Data represent the mean ± SEM of three independent experiments,*p < 0.05, **p < 0.01 and ***p < 0.001 between the indicated groups.
(§3) Caco-2 cells (passage 30–40) were cultured in DMEM with 10% FBS, 1% nonessential amino acids, 2 mM L-glutamine, 100 units/ml of penicillin, and 100 µg/ml of streptomycin at +37 °C. Cells were cultured 14 days before the treatments. For the immunoblotting, cells were seeded on 24-well plates (1 × 10^5 cells/well).
(§4) After treatment, medium was discarded and cells were washed twice with ice-cold PBS. RIPA buffer was added to the cells and incubated for 30 min. Cell suspensions were collected and centrifuged (13,000 rpm, 20 min +4 °C). Supernatant containing the proteins were aliquoted and stored at −80 °C. Sample protein concentrations were measured with Bradford Assay (Bio-Rad DC^TM Protein Assay).
(§5) Immunoblotting was performed according to standard protocols from four independent experiments. […] HRP-conjugated secondary antibodies (goat anti-rabbit, goat anti-mouse) were incubated for 1 hour at room temperature and proteins were detected using ELC prime western blotting system. […]

[4] = tested on: FoxO3α protein expression in Caco-2 cells; assay: Immunoblotting of FoxO3α protein expression in Caco-2 cells; assay type: cell-based, human; details: Caco-2, 24 h, 50 and 100 µM
Method: as §1, §2, §3, §4, §5

GST-SIRT6 = target: T2, GST-SIRT6 (Homo sapiens, UniProt Q8N6T7); assay: In vitro SIRT6 deacetylation of core histones, western blot of H3K9Ac; assay type: biochemical; details: 100 µM
T2 construct: made in house; host or cells: E. coli BL21(DE3)-pRARE
T2 sequence (Q8N6T7 whole entry): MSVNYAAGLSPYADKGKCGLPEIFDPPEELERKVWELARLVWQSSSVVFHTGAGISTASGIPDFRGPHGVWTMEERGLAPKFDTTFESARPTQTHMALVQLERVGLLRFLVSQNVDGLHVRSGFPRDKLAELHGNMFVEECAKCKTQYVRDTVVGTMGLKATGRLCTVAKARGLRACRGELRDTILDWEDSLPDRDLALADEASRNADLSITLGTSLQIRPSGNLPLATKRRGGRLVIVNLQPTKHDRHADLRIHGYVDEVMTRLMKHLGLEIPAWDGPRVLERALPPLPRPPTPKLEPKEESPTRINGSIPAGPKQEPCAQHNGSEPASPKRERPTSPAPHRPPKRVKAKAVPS
Method: Western blot analysis was carried out as previously described, with slight modifications. […] The reaction was stopped with Laemmli (sample buffer) and separated by SDS-PAGE using 10–20% gradient gels and transferred onto polyvinylidene difluoride (PVDF) membranes. H3K9 acetylation was detected with rabbit anti-acetyl H3K9 antibody followed by anti-rabbit HRP-conjugated secondary antibody. Membranes were stripped and re-probed with rabbit anti-histone H3 antibody. Chemiluminescent signal detection and image acquisition were carried out using ECL prime western blotting detection reagents.
3 μg/well of a purified recombinant GST‐SIRT6 protein, 1.25 μg purified whole chicken core histones with 500 μM NAD+ in 25 mM Tris‐HCl, pH 8.0. Analysis were repeated three times and one representative cropped blot is shown (A). Uncropped blots probed with H3K9Ac (B), H3 (C). […]

[5] = tested on: SIRT6 protein expression in Caco-2 cells; assay: Immunoblotting of SIRT6 protein expression in Caco-2 cells; assay type: cell-based, human; details: 24 h; for SIRT6 expression, in words: Caco-2 cells
Method: as §1
(§6) (B) Immunoblotting analysis of SIRT6 protein. SIRT6 protein levels (MW: 39 kDa) were normalized relative to α-tubulin (MW: 50 kDa) and quantification is represented as fold change respect to control. Values are expressed as mean ± SEM of four independent experiment (*p values < 0.05; one way-ANOVA). SIRT6 expression were determined by immunoblotting (B).
as §3, §4
Immunoblotting was performed according to standard protocols from four independent experiments. Briefly, protein samples (18 µg/sample) were separated by SDS-PAGE using 10–20% gradient gels and transferred onto PVDF membranes. Membranes were blocked in 3% non-fat dry milk and further incubated with primary rabbit anti- FoxO3α (1:2000), anti-GLUT1 (1:1000), anti-H3, anti-SIRT6 (1:2000), anti-Twist (1:2000) anti-α-tubulin (1:8000) antibodies overnight at +4 °C. HRP-conjugated secondary antibodies (goat anti-rabbit, goat anti-mouse) were incubated for 1 hour at room temperature and proteins were detected using ELC prime western blotting system. Densitometric analysis of protein bands was carried out using ImageJ 1.32 software and the data were normalized by α-tubulin (loading control).

Caco-2 cells = assay: Light microscopy of Caco-2 cells after treatment; assay type: cell-based, human; details: 200 µM
Method: as §1, §6, §3

[6] = tested on: GLUT1 protein expression in Caco-2 cells; assay: Immunoblotting of GLUT1 protein expression in Caco-2 cells; assay type: cell-based, human; details: Caco-2, 24 h, 100 µM
Method: as §1, §2, §3, §4, §5

T1 sequence (Q8N6T7 whole entry): as above

Structure (SMILES)	SIRT6 inhibition, in words (GST-tagged SIRT6 [2])	Activation 100 µM (GST-tagged SIRT6 [2]; mean ± SD, n=3) [fold]	inhibition at 100 µM (GST-tagged SIRT6 [2]; mean ± SD, n=3) [%]	SIRT6 activation, in words (GST-tagged SIRT6 [2])	further results
O=c1c(O)c(-c2ccc(O)c(O)c2)oc2cc(O)cc(O)c12 [Compound 15, Quercetin]	inhibitors as well as activators depending on the concentration	1.5 ± 0.1	40 ± 3	–	Modulation of SIRT6 deacetylation activity, in words (GST-tagged SIRT6 [1]): increase SIRT6 deacetylation activity at high concentrations, while also inhibiting deacetylation activity at low concentrations; inhibition at 10 µM (GST-tagged SIRT6 [2]; 10 µM compound, mean ± SD, n=3): 27 ± 0.4%
Oc1cc(O)c2cc(O)c(-c3cc(O)c(O)c(O)c3)[o+]c2c1 [Compound 18, Delphinidin]	–	2.2 ± 0.1	0	increase in deacetylase activity; also recorded: weaker activity against SIRT6 than compound 17	Increase of deacetylation activity (H3K9Ac on core histones) (GST-SIRT6): ~2.5 fold
NC(=O)c1cccnc1 [Compound 21, Nicotinamide, reference compound]	–	–	–	–	inhibition at 1000 µM (GST-tagged SIRT6 [2]): 58 ± 1.3%
COc1cc(CCC(=O)O)ccc1O [Compound 23, 3-(4-Hydroxy-3-methoxyphenyl)propionic acid]	–	1.8 ± 0.05	-12 ± 1.1	increased slightly SIRT6 activation	–
O=C(O)C=Cc1ccc(O)cc1 [Compound 24, p-Coumaric acid]	inactive	0.6 ± 0.1	8.5 ± 1.2	–	–
COc1cc(/C=C/C(=O)O)ccc1O [Compound 26, trans-Ferulic acid]	inactive	0.9 ± 0.6	–	–	Inhibition % 100 µM (GST-tagged SIRT6 [2]; mean ± SD, n=3): -8.6 ± 0.3%
COc1cc(/C=C/C(=O)O)cc(OC)c1O [Compound 27, Sinapic Acid]	inactive	0.6 ± 0.2	–	–	Inhibition % 100 µM (GST-tagged SIRT6 [2]; mean ± SD, n=3): 8.0 ± 0.9%

Now from value to molecule, other results behind:

SIRT6 inhibition, in words (GST-tagged SIRT6 [2])	Activation 100 µM (GST-tagged SIRT6 [2]; mean ± SD, n=3) [fold]	inhibition at 100 µM (GST-tagged SIRT6 [2]; mean ± SD, n=3) [%]	SIRT6 activation, in words (GST-tagged SIRT6 [2])	Structure (SMILES)	further results
–	–	0	–	O=c1c(O)c(-c2cc(O)c(O)c(O)c2)oc2cc(O)cc(O)c12 [Compound 16, Myricetin]	–
–	2.6 ± 0.1	0	increase in deacetylase activity	Oc1cc(O)c2cc(O)c(-c3ccc(O)c(O)c3)[o+]c2c1 [Compound 17, Cyanidin]	Twist1 expression, in words [3]: downregulated; FoxO3α protein expression, in words [4]: enhanced the protein expression of FOXO3 significantly; Increase of deacetylation activity (H3K9Ac on core histones) (GST-SIRT6): ~2.5 fold; SIRT6 expression up-regulation ([5]; Caco-2, 50–100 µM, relative to control): 3.5 fold; SIRT6 expression, in words [5]: effective in a dose-dependent manner; SIRT6 expression, in words ([5]; listed as Cyanidin): significantly increased SIRT6 expression; Precipitation in cell culture medium (Caco-2 cells): precipitated out of solution; GLUT1 expression, in words [6]: downregulated
weak SIRT6 inhibitors	0.7 ± 0.2	9.6 ± 1.4	–	O=c1c(-c2ccc(O)cc2)coc2cc(O)cc(O)c12 [Compound 19, Genistein]	inhibition at 10 µM (GST-tagged SIRT6 [2]; 10 µM compound, mean ± SD, n=3): 1.8 ± 0.3%
weak SIRT6 inhibitors	1.3 ± 0.02	–	able to activate deacetylation of SIRT6	COc1ccc(-c2coc3cc(O)cc(O)c3c2=O)cc1 [Compound 20, Biochanin A]	Inhibition % 10 µM (GST-tagged SIRT6 [2]; 10 µM compound, mean ± SD, n=3): 13 ± 0.5%; Inhibition % 100 µM (GST-tagged SIRT6 [2]; mean ± SD, n=3): 24 ± 0.9%
–	1.4 ± 0.04	14 ± 1.2	increased slightly SIRT6 activation	O=C(O)c1cc(O)c(O)c(O)c1 [Compound 22, Gallic Acid]	–
inactive	1.0 ± 0.01	-5.9 ± 0.2	–	O=C(O)/C=C/c1ccc(O)c(O)c1 [Compound 25, Caffeic Acid]	–
